Reference: ChEMBL document CHEMBL3301361, “Experimental in vitro DMPK and physicochemical data on a set of publicly disclosed compounds”
≈ marks a conversion by molar mass, not a printed value.

Columns and labels:
[1] = physchem; conditions: octan-1-ol/water
[2] = physchem; conditions: pH 7.4 buffer

Row | Structure (SMILES) | logD ([1]; pH 7.4, LogD7.4) | solubility thermodynamic [2] [µM] | logD ([1]; pH 7.4)
1 | COc1ccc(Nc2cc(Nc3ccc(OCC(O)CN(C)C)cc3)ncn2)cc1 (stereo not drawn) | 1.5 | 12 (≈ 4.91 µg/mL) | –
2 | CCOC(=O)N1CCN(C(=O)[C@H](Cc2cccc(C(=N)N)c2)NS(=O)(=O)c2c(C(C)C)cc(C(C)C)cc2C(C)C)CC1 | 1.67 | 692 (≈ 425 µg/mL) | –
3 | O=C(O)CC(=O)N[C@@H]1c2ccccc2C[C@H]1NC(=O)c1cc2sc(Cl)c(Cl)c2[nH]1 | 1.18 | 1170 (≈ 531 µg/mL) | –
4 | Cc1cc(NC(=O)c2ccccc2)n[nH]1 | 1.75 | 813 (≈ 164 µg/mL) | –
5 | Cc1nc(CS(=O)(=O)c2ccc(Cl)cc2)cc(N2CCOCC2)n1 | 1.8 | 224 (≈ 82.4 µg/mL) | –
6 | Cc1onc(CO)c1C(=O)Nc1nccs1 | 1.53 | 144 (≈ 34.6 µg/mL) | –
7 | O=S(=O)(c1cccc(-c2cn3cccnc3n2)c1)N1CCOCC1 | 1.3 | 39.8 (≈ 13.7 µg/mL) | –
8 | CCOC(=O)Cc1csc(NS(=O)(=O)c2ccc(Cl)cc2)n1 | 1.32 | 417 (≈ 150 µg/mL) | –
9 | Oc1cc(OCc2ccccc2)ccn1 | 1.69 | 1230 (≈ 248 µg/mL) | –
10 | O=C1CN(C(=O)c2ccco2)c2ccccc2N1 | 1.21 | 269 (≈ 65.2 µg/mL) | –
11 | CC(=O)c1ccc2[nH]c(-c3cccnc3)cc(=O)c2c1 | 1.41 | 126 (≈ 33.3 µg/mL) | –
12 | Cc1nc2nc(-c3cccnc3)nn2c(O)c1Cc1ccccc1 | 1.52 | 29.5 (≈ 9.36 µg/mL) | –
13 | COC[C@H](C)Oc1cc(Oc2cc(F)cc(F)c2)cc(C(=O)Nc2ccc(C(=O)O)cn2)c1 | 1.36 | 832 (≈ 381 µg/mL) | –
14 | Cc1cc(CCC2CCN(S(=O)(=O)CC3(N(O)C=O)CCOCC3)CC2)c(C)cn1 | 1.43 | 1100 (≈ 482 µg/mL) | –
15 | O=CN(O)C1(CS(=O)(=O)N2CCN(c3ccc(F)cc3)CC2)CCC1 | 1.34 | 490 (≈ 182 µg/mL) | –
16 | Cc1cn(C[C@H]2CN(c3ccc(C4=CCS(=O)(=O)CC4)c(F)c3)C(=O)O2)nn1 | 1.25 | 372 (≈ 151 µg/mL) | –
17 | COc1cc(OC2CCNCC2)ccc1Nc1ncc(Cl)c(-c2cnc3ccccn23)n1 | 1.8 | 30.9 (≈ 13.9 µg/mL) | –
18 | CC1CN(C(=O)c2ccccc2)c2ccccc2NC1=O (stereo not drawn) | 1.73 | 1200 (≈ 337 µg/mL) | –
19 | Cc1ccc(NC(=O)c2cccnc2)cc1-n1cnc2ccc(N3CCN(C)CC3)cc2c1=O | 1.5 | 251 (≈ 114 µg/mL) | –
20 | CNC(=O)Nc1nc2ccc(-c3cncc(S(=O)(=O)NC(C)(C)C)c3)cn2n1 | 1.58 | 87.1 (≈ 35.1 µg/mL) | –
21 | COc1cc(OC)nc(-n2ncc(Cl)c(Cl)c2=O)n1 | 1.4 | 70.8 (≈ 21.5 µg/mL) | –
22 | CCCSc1nc(Oc2ccc(CC(=O)O)cc2)ccc1C(=O)NC1CCCCC1 | 1.79 | 550 (≈ 235 µg/mL) | –

Row | Structure (SMILES) | logD ([1]; pH 7.4, LogD7.4) | solubility thermodynamic [2] [µM] | logD ([1]; pH 7.4)
23 | CCCSc1nc(N2CCC(C(=O)O)CC2)ccc1C(=O)NC1CCCCC1 | 1.6 | 309 (≈ 125 µg/mL) | –
24 | CS(=O)(=O)c1ccc2[nH]c3c(c2c1)CN(C(=O)[C@@H]1CCCC[C@H]1C(=O)NC1(C#N)CC1)CC3 | 1.5 | 190 (≈ 89.3 µg/mL) | –
25 | Cc1nc(C)c(-c2ccc(C34CCC(CC(=O)O)(CC3)CC4)cc2)nc1C(N)=O | 1.6 | 112 (≈ 44.1 µg/mL) | –
26 | Cc1nc(C)c(-c2ccc([C@H]3CC[C@H](CCC(=O)O)CC3)cc2)nc1C(N)=O | 1.6 | 200 (≈ 76.1 µg/mL) | –
27 | Cc1nc(C)c(-c2ccc([C@H]3CC[C@H](CC(=O)O)CC3)c(Cl)c2)nc1C(N)=O | 1.8 | 209 (≈ 84 µg/mL) | –
28 | Cc1nc(C)c(-c2ccc([C@H]3CC[C@@H](CC(=O)O)CC3)c(F)c2)nc1C(N)=O | 1.2 | 759 (≈ 292 µg/mL) | –
29 | Cc1nc(C)c(-c2ccc([C@H]3CC[C@@H](CC(=O)O)CC3)c(Cl)c2)nc1C(N)=O | 1.7 | 200 (≈ 80.2 µg/mL) | –
30 | CNC(=O)c1cc(-c2nc(N3CCOCC3)cc(C3(S(C)(=O)=O)CC3)n2)c2cc[nH]c2c1 | 1.7 | 46.8 (≈ 21.3 µg/mL) | –
31 | CCCNCc1cnc(-c2ccc(C(=O)Nc3ccccc3N)cc2)s1 | 1.75 | 676 (≈ 248 µg/mL) | –
32 | Cn1sc(NCc2ccccc2)nc1=O | 1.2 | 1510 (≈ 335 µg/mL) | –
33 | CCN(CC)C(=O)Cc1csc(NS(=O)(=O)c2cccc(Cl)c2C)n1 | 1.67 | 40.7 (≈ 16.4 µg/mL) | –
34 | CSc1ccc(OCc2ccccc2)c(C(=O)Nc2ccc(C(=O)O)cn2)c1 | 1.6 | 200 (≈ 78.7 µg/mL) | –
35 | CC(C)Oc1cc(OCCc2ccsc2)cc(C(=O)Nc2ccc(C(=O)O)cn2)c1 | 1.74 | 33.9 (≈ 14.5 µg/mL) | –
36 | CC(C)COc1cc(OC(C)C)cc(C(=O)Nc2ccc(C(=O)O)cn2)c1 | 1.6 | 190 (≈ 70.9 µg/mL) | –
37 | CCc1cc(OCc2ccc(-c3ccccc3-c3nnn[nH]3)cc2)c2c(n1)CCCC2 | 1.7 | 23.4 (≈ 9.63 µg/mL) | –
38 | NC(=O)Nc1sc(-c2ccc(CNC3CCCC3)cc2)cc1C(N)=O | 1.22 | 479 (≈ 172 µg/mL) | –
39 | CC1(C)Oc2ncnc(N)c2N=C1c1ccc([C@H]2CC[C@H](CC(=O)O)CC2)cc1 | 1.32 | 118 (≈ 46.4 µg/mL) | –
40 | Nc1nccc(-c2c[nH]c3ccccc23)n1 | 1.68 | 575 (≈ 121 µg/mL) | –
41 | Cc1ncc(-c2ccnc(Nc3ccc(S(N)(=O)=O)cc3)n2)n1C | 1.6 | 36.3 (≈ 12.5 µg/mL) | –
42 | COc1cc(C(=O)NS(=O)(=O)c2ccccc2)ccc1Cn1ncc2ccc(NC(=O)CC3CCCC3)cc21 | 1.6 | 251 (≈ 137 µg/mL) | –
43 | Cc1c[nH]c(/C=C2\C(=O)Nc3ccccc32)c1CCC(=O)O | 1.2 | 447 (≈ 132 µg/mL) | –
44 | CN(C)CC(O)COc1ccc(Nc2nccc(Nc3ccccc3C#N)n2)cc1 (stereo not drawn) | 1.2 | 1100 (≈ 444 µg/mL) | –

Row | Structure (SMILES) | logD ([1]; pH 7.4, LogD7.4) | solubility thermodynamic [2] [µM] | logD ([1]; pH 7.4)
45 | Nc1cccc(NC(=O)c2ccc(CNC(=O)OCc3cccnc3)cc2)c1 | 1.6 | 21.9 (≈ 8.24 µg/mL) | –
46 | Nc1ccc(OCc2ccccc2)cc1 [4-BENZYLOXYANILINE] | 2.2 | 468 (≈ 93.2 µg/mL) | –
47 | Nc1ncnc2c1ncn2Cc1ccccc1 [9-BENZYL-9H-ADENINE] | 1.53 | 246 (≈ 55.3 µg/mL) | –
48 | CN(C)C/C=C/C(=O)Nc1cc2c(Nc3ccc(F)c(Cl)c3)ncnc2cc1O[C@H]1CCOC1 [AFATINIB] | 3.7 | 93.3 (≈ 45.3 µg/mL) | –
49 | Nc1ncnc(Nc2ccccc2)n1 [AMANOZINE] | 1.4 | 246 (≈ 46 µg/mL) | –
50 | O=C1CN2Cc3c(ccc(Cl)c3Cl)N=C2N1 [ANAGRELIDE] | 1.86 | 5.4 (≈ 1.38 µg/mL) | –
51 | CNC(=O)c1ccccc1Sc1ccc2c(/C=C/c3ccccn3)n[nH]c2c1 [AXITINIB] | 3.8 | 0.5 (≈ 0.193 µg/mL) | –
52 | Cc1ccc(C(=O)Oc2ccc(C(O)CNC(C)(C)C)cc2OC(=O)c2ccc(C)cc2)cc1 (stereo not drawn) [BITOLTEROL] | 3.57 | 81.3 (≈ 37.5 µg/mL) | –
53 | Cc1ccc2nc(NCCN)c3ncc(C)n3c2c1 [BMS-345541] | 0.88 | 246 (≈ 62.7 µg/mL) | –
54 | Cc1cc2c(F)c(Oc3ncnn4cc(OC[C@@H](C)OC(=O)[C@H](C)N)c(C)c34)ccc2[nH]1 [BRIVANIB ALANINATE] | 3.19 | 37.2 (≈ 16.4 µg/mL) | –
55 | NC1=NN(c2cccc(C(F)(F)F)c2)CC1 [BW-755C] | 2.55 | 1450 (≈ 331 µg/mL) | –
56 | CC1(COc2ccc3c(c2)ncn3-c2ccc3cccc(N4CCC(N)CC4)c3n2)COC1 [CRENOLANIB] | 1.99 | 5.1 (≈ 2.26 µg/mL) | –
57 | c1ccc(Nc2ccccc2)cc1 [DIPHENYLAMINE] | 3.2 | 178 (≈ 30.1 µg/mL) | –
58 | Cc1oc(-c2ccccc2)nc1CCOc1ccc(C[C@H](Nc2ccccc2C(=O)c2ccccc2)C(=O)O)cc1 [FARGLITAZAR] | 3.5 | 35.5 (≈ 19.4 µg/mL) | –
59 | CC1CCc2cc(F)cc3c(=O)c(C(=O)O)cn1c23 (stereo not drawn) [FLUMEQUINE] | – | 776 (≈ 203 µg/mL) | 0.74
60 | CC(C)C(=O)Nc1ccc([N+](=O)[O-])c(C(F)(F)F)c1 [FLUTAMIDE] | – | 89.1 (≈ 24.6 µg/mL) | 3.46
61 | Cc1cccc(-c2nn3c(c2-c2ccnc4ccc(C(N)=O)cc24)CCC3)n1 [GALUNISERTIB] | 1.71 | 182 (≈ 67.2 µg/mL) | –
62 | COc1ccc2c(c1)[nH]c1c(C)nccc12 [HARMINE] | – | 55 (≈ 11.7 µg/mL) | 2.9
63 | O=C(N[C@@H](Cc1ccccc1)[C@@H](O)C(=O)N1C[C@@H](O)[C@@H](O)C1)c1cc2cc(Cl)ccc2[nH]1 [INGLIFORIB] | 2.8 | 436 (≈ 200 µg/mL) | –
64 | O=c1cc(N2CCOCC2)oc2c(-c3ccccc3)cccc12 [LY-294002] | 2.9 | 302 (≈ 92.8 µg/mL) | –
